{
  "source": "patent US11738065B2",
  "about": "“Polypeptides and analogues thereof for use in the treatment of diabetes and bone disorders” (UNIVERSITY OF ULSTER, priority 2015, dated 2023)",
  "key": {"BRIN-BD11 cells": {"system": "BRIN-BD11 cells", "assay": "In vitro insulin secretion from BRIN-BD11 cells", "type": "cell-based", "description": "BRIN-BD11 cells were used to assess the insulin releasing activity of polypeptides as described by […] et al., 1996 (Diabetes. 1996 August; 45(8):1132-40). Cells were cultured in RPMI-1640 growth media supplemented with 10% (v/v) foetal bovine serum (FBS) and 1% (v/v) antibiotics (penicillin (100 U/ml), streptomycin ([…])), in 75 cm2 sterile tissue culture flasks (Greiner bio-one, UK) maintained at 37° C. and 5% CO2 in a LEEC incubator (Laboratory technical engineering, Nottingham, UK). BRIN-BD11 cells were then seeded at a density of 150,000 cells/well in 24-well plates (Nunc, Roskilde, Denmark) and allowed to attach overnight at 37° C."}, "lean control mice": {"system": "lean control mice", "assay": "Acute and persistent glucose lowering and insulin releasing effects in lean control mice", "type": "in vivo", "description": "All animal experiments were carried out in accordance with the UK Animals (Scientific Procedures) Act 1986. For food intake studies, fasted (18 h) mice were given intraperitoneal (i.p) injections of polypeptides at a dose of 25, 100 or 250 nmol/kg bw. Mice were then allowed free access to normal chow for 180 mins and cumulative food intake measured. […] Blood samples were collected from the cut tip on the tail vein of conscious mice into chilled fluoride/heparin glucose micro-centrifuge tubes (Sarstedt, Numbrecht, Germany) at the time points indicated in the Drawings. Blood glucose was measured directly using a hand-held Ascencia Contour blood glucose meter (Bayer Healthcare, Newbury, Berkshire, UK)."}, "high fat fed mice [1]": {"system": "high fat fed mice", "assay": "Insulin sensitivity test and HOMA-IR after 21 days treatment", "type": "in vivo", "description": "(§1) On day 21, a non-fasted 24 h glucose profile was conducted. […] HOMA-IR was determined using the equation HOMA-IR=fasting glucose (mmol/l)×fasting insulin (mU/l)/22.5. […] Terminal analysis included measurement of total body fat and lean mass by DEXA scanning (Piximus Densitometer, Inside Outside Sales, Madison Wis., USA) and extraction of pancreatic tissue for analysis as detailed below. […] Briefly, pancreatic tissues were fixed in 4% parafolmaldehyde at 4° C. for 48 h. Pancreata were then embedded in paraffin wax and processed using an automated tissue processor (Leica TP1020, Leica Microsystems, Nussloch, Germany). Immunohistochemistry was performed as described by Vasu et al., 2014 (PLoS One. 2014 Jun. 26; 9(6):e101005). […] Abcam, ab6995) or guinea-pig anti-glucagon antibody (PCA2/4, 1:400; raised in-house). […] The slides were viewed under a FITC (488 nm) or TRITC filter (594 nm) using a fluorescent microscope (Olympus system microscope, model BX51) and photographed using a DP70 camera adapter system. Islet parameters were analysed using Cell^F image analysis software (Olympus Soft Imaging Solutions, GmbH)."}, "high fat fed mice [2]": {"system": "high fat fed mice", "assay": "Pancreatic insulin content and islet histology after 21 days treatment", "type": "in vivo", "description": "as §1, with “GmbH). Blood samples were collected from the cut tip on the tail vein of conscious mice into chilled fluoride/heparin glucose micro-centrifuge tubes (Sarstedt, Numbrecht, Germany) at the time points indicated in the Drawings. Blood glucose was measured directly using a hand-held Ascencia Contour blood glucose meter (Bayer Healthcare, Newbury, Berkshire, UK).” for “GmbH).”"}, "[3]": {"conditions": "25 nmol/kg 4 h before glucose 18 mmol/kg, vs saline"}},
  "data": [
    {"smiles": "CC[C@H](C)[C@H](NC(=O)[C@H](CO)NC(=O)[C@H](Cc1ccc(O)cc1)NC(=O)[C@H](CC(=O)O)NC(=O)[C@H](CO)NC(=O)[C@@H](NC(=O)[C@H](Cc1ccccc1)NC(=O)[C@@H](NC(=O)CNC(=O)[C@H](CCC(=O)O)NC(=O)[C@@H](C)NC(=O)[C@@H](N)Cc1ccc(O)cc1)[C@@H](C)O)[C@@H](C)CC)C(=O)N[C@@H](C)C(=O)N[C@@H](CCSC)C(=O)N[C@@H](CC(=O)O)C(=O)N[C@@H](CCCCN)C(=O)N[C@H](C(=O)N[C@@H](Cc1c[nH]cn1)C(=O)N[C@@H](CCC(N)=O)C(=O)N[C@@H](CCC(N)=O)C(=O)N[C@@H](CC(=O)O)C(=O)N[C@@H](Cc1ccccc1)C(=O)N[C@H](C(=O)N[C@@H](CC(N)=O)C(=O)N[C@@H](Cc1c[nH]c2ccccc12)C(=O)N[C@@H](CC(C)C)C(=O)N[C@@H](CC(C)C)C(=O)N[C@@H](C)C(=O)N[C@@H](CCC(N)=O)C(=O)N[C@@H](CCCCN)C(=O)NCC(=O)N[C@@H](CCCCN)C(=O)N[C@@H](CCCCN)C(=O)N[C@@H](CC(N)=O)C(=O)N[C@@H](CC(=O)O)C(=O)N[C@@H](Cc1c[nH]c2ccccc12)C(=O)N[C@@H](CCCCN)C(=O)N[C@@H](Cc1c[nH]cn1)C(=O)N[C@@H](CC(N)=O)C(=O)N[C@H](C(=O)N[C@H](C(=O)N[C@@H](CCC(N)=O)C(=O)O)[C@@H](C)O)[C@@H](C)CC)C(C)C)[C@@H](C)CC", "note": "[(DAla2)GIP, TYR-(d)ALA-GLU-GLY-THR-PHE-ILE-SER-ASP-TYR-SER-ILE-ALA-MET-ASP-LYS-ILE-HIS-GLN-GLN-ASP-PHE-VAL-ASN-TRP-LEU-LEU-ALA-GLN-LYS-GLY-LYS-LYS-ASN-ASP-TRP-LYS-HIS-ASN-ILE-THR-GLN]", "values": [
      {"measurement": "Insulin secretion from BRIN-BD11 cells", "setting": "BRIN-BD11 cells; 10^−6 mol/l peptide, 20 min, vs 5.6 and 16.7 mmol/l glucose control", "value": "significantly (P<0.05 to P<0.001) stimulated insulin secretion"},
      {"measurement": "Insulin release from BRIN-BD11 cells", "setting": "BRIN-BD11 cells; 10^−8 M peptide, vs 5.6 and 16.7 mmol/l glucose controls respectively", "value": "significant (P<0.001 and P<0.01; respectively) increases in insulin release"},
      {"measurement": "Overall AUC blood glucose, peptide 4 h prior to glucose load", "setting": "lean control mice; [3]", "value": "significantly reduced"},
      {"measurement": "Plasma insulin AUC, peptide 4 h prior to glucose load", "setting": "lean control mice; [3]", "value": "increased plasma insulin AUC values (P<0.05)"},
      {"measurement": "Blood glucose at 15 min post-injection", "setting": "lean control mice; 25 nmol/kg with glucose 18 mmol/kg i.p.", "value": "significant (P<0.05) reduction in blood glucose levels"},
      {"measurement": "Blood glucose at 30 min post injection", "setting": "lean control mice; 25 nmol/kg with glucose 18 mmol/kg i.p., non-fasted mice, vs glucose alone", "value": "significantly (P<0.05) lowered blood glucose values"},
      {"measurement": "Overall 0-105 min AUC blood glucose", "setting": "lean control mice; 25 nmol/kg with glucose 18 mmol/kg i.p., vs glucose alone", "value": "significantly (P<0.05) decreased"},
      {"measurement": "HOMA-IR insulin sensitivity", "setting": "high fat fed mice [1]; 21 days treatment, vs high fat controls", "value": "significantly (P<0.05) improved insulin sensitivity"},
      {"measurement": "Individual blood glucose levels following exogenous insulin", "setting": "high fat fed mice [1]; insulin 15 U/kg i.p., day 21, vs high fat controls", "value": "reduced, albeit non-significantly"},
      {"measurement": "Overall glucose lowering effect of insulin (blood glucose AAC 0-60 min)", "setting": "high fat fed mice [1]; insulin 15 U/kg i.p., day 21, vs saline control high fat mice", "value": "significantly (P<0.001) improved"},
      {"measurement": "Pancreatic islet area and beta cell area", "setting": "high fat fed mice [2]; 21 days twice daily 25 nmol/kg", "value": "no significant effect"},
      {"measurement": "Pancreatic alpha cell area", "setting": "high fat fed mice [2]; 21 days twice daily 25 nmol/kg, vs high fat controls", "value": "decreased (P<0.001)"},
      {"measurement": "Number of islets per mm2", "setting": "high fat fed mice [2]; 21 days, vs all other groups of mice", "value": "significantly (P<0.05 to P<0.01) augmented"}
    ]}
  ]
}
